Experiment: Density of ionic liquids
Format: physicochemical
Conditions: 20° C.
Description: Density and molecular weight (Mw) of Ionic liquids 1 to 4 were determined at 20° C., and each ion concentration was calculated from the relationship: [density of ionic liquid (g/cm^3)/molecular weight (MW) of ionic liquid (g/mol)]×1000.

Molecule | density [g/mL]
N,N-diethyl-N-methyl(2-methoxyethyl)ammonium bis(trifluoromethanesulfonyl)imide [Ionic liquid 3] | 1.420
CCn1cc[n+](C)c1.F[B-](F)(F)F [Ionic liquid 1, 1-Ethyl-3-methylimidazolium tetrafluoroborate] | 1.283
CCCCn1cc[n+](C)c1.F[B-](F)(F)F [Ionic liquid 4, 1-Butyl-3-methylimidazolium tetrafluoroborate] | 1.208
Butylpyridinium bis(trifluoromethanesulfonyl)imide [Ionic liquid 2] | 1.453

Source: patent publication US8318644B2, “Lubricating oil” (Idemitsu Kosan Co., Ltd., priority 2003, dated 2012)
